Here are results for four molecules from ChEMBL document CHEMBL5257083, “Identification of a Noxo1 inhibitor by addition of a polyethylene glycol chain” (Bioorg Med Chem, 2023).

Data set [1] in a line: Inhibition of 6His tagged NOXO1 (149 to 286 residues) (unknown origin) expressed in Escherichia coli BL21 (DE3)-CYBA (unknown origin) protein-protein interaction assessed as apparent dissociation constant at 200 uM by isothermal titration calorimetry. Set-up: species or system Homo sapiens. The conditions noted are these: read-out: Kd(app). (ITC needs no label: the signal is the heat of the interaction.)

The nature of data set [2]: Cytotoxicity against human Keratinocyte assessed as cell viability at 1 uM incubated for 48 hrs by MTT assay (reference value: 100 + /-7 %). The data set is classed as toxicity, cell-based. The conditions noted are these: keratinocytes, read-out: Activity. In general terms: Tetrazolium dyes change colour on reduction, which living cells bring about.
The test system of data set [3] is Keratinocyte. As to the kind of experiment: Cytotoxicity against human Keratinocyte incubated for 48 hrs by MTT assay. The data set is classed as toxicity, cell-based.
Data set [4] can be described thus: Cytoprotective activity in human Keratinocyte assessed as decrease in UV-radiation induced DNA damage by measuring CPD intensity preincubated for 24 hrs followed by UV exposure and measured after 24 hrs by immunohistological analysis (reference value: 0.003 a.u.). The conditions noted are these: time 48 hrs. The data set is classed as functional.
Data set [5] is described as follows: Cytoprotective activity in human Keratinocyte assessed as fold decrease in UV-radiation induced DNA damage preincubated for 24 hrs followed by UV exposure and measured after 24 hrs by immunohistological analysis. The data set is classed as functional. The conditions noted are these: time 48 hrs.
For data set [6], the system named is Keratinocyte. As to the kind of experiment: Cytoprotective activity in human Keratinocyte assessed as effect on CPD intensity incubated for 24 hrs by immunohistological analysis. The data set is classed as functional, cell-based.
In data set [7] the target is T1, NADPH oxidase organizer 1 (Homo sapiens) (UniProt Q8NFA2).
T1 sequence (whole entry): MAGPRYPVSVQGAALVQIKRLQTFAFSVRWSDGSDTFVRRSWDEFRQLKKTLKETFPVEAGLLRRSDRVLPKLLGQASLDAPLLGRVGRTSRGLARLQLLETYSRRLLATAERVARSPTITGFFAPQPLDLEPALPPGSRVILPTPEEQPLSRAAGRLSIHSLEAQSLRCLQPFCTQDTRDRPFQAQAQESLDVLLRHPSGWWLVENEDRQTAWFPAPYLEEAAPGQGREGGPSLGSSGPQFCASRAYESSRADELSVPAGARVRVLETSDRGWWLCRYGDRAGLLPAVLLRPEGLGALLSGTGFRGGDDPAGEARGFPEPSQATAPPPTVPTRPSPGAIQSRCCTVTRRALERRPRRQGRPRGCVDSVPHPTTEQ
As to the kind of experiment: Binding affinity to 6His tagged NOXO1 (149 to 286 residues) (unknown origin) expressed in Escherichia coli BL21 (DE3) assessed as change in enthalpy at 800 uM by isothermal titration calorimetry.

The species named for data set [8] is Homo sapiens. As to the kind of experiment: Inhibition of 6His tagged NOXO1 (149 to 286 residues) (unknown origin) expressed in Escherichia coli BL21 (DE3)-CYBA (unknown origin) protein-protein interaction by MALDI-TOF-MS analysis.
A short description of data set [9]: Inhibition of 6His tagged NOXO1 (149 to 286 residues) (unknown origin) expressed in Escherichia coli BL21 (DE3)-CYBA (unknown origin) protein-protein interaction assessed as apparent dissociation constant at 800 uM by isothermal titration calorimetry. Set-up: species or system Homo sapiens. To be noted: read-out: Kd(app).

Active and inactive are the calls of the source. The calls are words filed in the database; no cut-off is given here.

As to `COCCOCCC(=O)N1CCC(CNc2ccccc2-c2cccc(C(N)=O)c2)CC1`, in data set [1], the Kd was determined as 44 µM.

With `NC(=O)c1cccc(-c2ccccc2NCC2CCN(C(=O)CCOCCOCCOCCOCCNC(=O)CCCC[C@H]3SC[C@H]4NC(=O)N[C@H]43)CC2)c1`, the viability at 48 h, 1 µM in data set [2] was found to be 101%. Moreover, the Activity result in data set [3] is “Non-Toxic”; in data set [4], 0.004 a.u. In addition, in data set [5], the “fold change (FC)” value was found to be 175. In data set [6], the outcome was inactive. Moreover, the Kd in [1] was determined as 39 µM. In [7], the deltaH came to 5.2 kcal/mol. Also, the inhibition entry in data set [8] was “Active”.

For the molecule `COCCOCCC(=O)N(C)Cc1ccccc1`, the Kd in data set [1] amounted to 2.3 µM.

As to `NC(=O)c1cccc(-c2ccccc2NCC2CCNCC2)c1`, the viability at 48 h, 1 µM in [2] was 106%. The Activity result in data set [3] is reported as “Non-Toxic”. Further, the Kd in data set [9] was found to be 4.1 µM.
